Drawing on US10287291B2, “Seco-cyclopropapyrroloindole compounds, antibody-drug conjugates thereof, and methods of making and use” (priority 2016, dated 2019), this text covers EC50 for five compounds.

Molecules are shown by their SMILES. Where two headings read alike, the source gives them in different places.

Assay [1] deals with N87 (human gastric (stomach) cancer cell line). Nature of the assay: 72 hr ATP luminescence proliferation inhibition, N87. Format: cell-based. The note with it: read-out: Proliferation Inhibition of Cancer Cells EC50, N87. The method, then:
(§1) Proliferation inhibition was measured using a 72 hr ATP luminescence assay (Cheng et al., U.S. Pat. No. 8,394,922 B2 (2013)).
(§2) Proliferation inhibition was measured against: (a) H226 (human mesothelioma (lung) cancer cell line); (b) N87 (human gastric (stomach) cancer cell line); (c) OVCAR3 (human ovarian cancer cell line); (d) HCT116 (human colon cancer cell line); and (e) HCT116/VM46 (multidrug and paclitaxel resistant subline of HCT116).

The subject of assay [2] is OVCAR3 (human ovarian cancer cell line). Kind of assay: 72 hr ATP luminescence proliferation inhibition, OVCAR3. Format: cell-based. The method, then: as §1, §2
For assay [3], the system named is H226 (human mesothelioma (lung) cancer cell line). Nature of the assay: 72 hr ATP luminescence proliferation inhibition, H226. Format: cell-based. The method, then: as §1, §2
The subject of assay [4] is HCT116/VM46 (multidrug and paclitaxel resistant subline of HCT116). Kind of assay: 72 hr ATP luminescence proliferation inhibition, HCT116/VM46. In kind it is cell-based, human. The note with it: read-out: Proliferation Inhibition of Cancer Cells EC50, HCT116/VM46. The method, then:
as §1, §2

Assay [5] relates to HCT116 (human colon cancer cell line). Kind of assay: 72 hr ATP luminescence proliferation inhibition, HCT116. In kind it is cell-based. The method, then:
as §1, §2

Where [6] appears, read: Homo sapiens, OVCAR-3, read-out: Proliferation Inhibition of Cancer Cells EC50, OVCAR3.
Where [7] appears, read: Homo sapiens, NCI-H226, read-out: Proliferation Inhibition of Cancer Cells EC50, H226.
[8] abbreviates: Homo sapiens, HCT-116/VM46, HCT116/VM46 cell line.
Setting [9] is: Homo sapiens, HCT-116, read-out: Proliferation Inhibition of Cancer Cells EC50, HCT116.

With `O=C(c1cc2c3c(cc(O)c2[nH]1)N(C(=O)c1cc2cc(OCCC4CC4)ccc2[nH]1)C[C@H]3CCl)N1CCOCC1` [Ia-07], the EC50 in assay [1] (Homo sapiens) came to 0.81 nM; in assay [2] (setting [6]), 0.41 nM; in assay [3] (setting [7]), 0.72 nM; in assay [4] (setting [8]), 0.67 nM; in assay [5] (setting [9]) it was 0.67 nM.
Take `CNCCOc1ccc2[nH]c(C(=O)N3C[C@@H](CCl)c4c3cc(O)c3[nH]c(C(=O)N5CCOCC5)cc43)cc2c1` [Ia-17]: the EC50 in assay [1] amounted to 36 nM; in assay [2] (read-out: Proliferation Inhibition of Cancer Cells EC50, OVCAR3), 18 nM; in assay [3] (read-out: Proliferation Inhibition of Cancer Cells EC50, H226), 1.6 nM; in assay [4] (HCT116/VM46 cell line), 25 nM; in assay [5] (read-out: Proliferation Inhibition of Cancer Cells EC50, HCT116), 19 nM.
Consider `NCCOc1ccc2[nH]c(C(=O)N3C[C@@H](CCl)c4c3cc(O)c3[nH]c(C(=O)N5CCOCC5)cc43)cc2c1` [Ia-18], for which the EC50 in assay [1] (Homo sapiens) is 48 nM; in assay [2] (setting [6]) it was 12 nM; in assay [3] (setting [7]) it was 32 nM; in assay [4] (setting [8]), 19 nM; in assay [5] (setting [9]), 25 nM.
For `CC(C)COc1ccc2[nH]c(C(=O)N3C[C@@H](CCl)c4c3cc(O)c3[nH]c(C(=O)N5CCOCC5)cc43)cc2c1` [Ia-05], the EC50 worked out at 0.21 nM in assay [1] (Homo sapiens); 0.076 nM in assay [2] (setting [6]); 0.18 nM in assay [3] (setting [7]); 0.17 nM in assay [4] (setting [8]); 0.17 nM in assay [5] (setting [9]).
`Nc1ccc2[nH]c(C(=O)N3C[C@@H](CCl)c4c3cc(O)c3[nH]c(C(=O)N5CCOCC5)cc43)cc2c1` [Ia-19]: the EC50 in assay [1] (Homo sapiens) turned out to be 3.1 nM; in assay [2] (setting [6]), 1.1 nM; in assay [3] (setting [7]), 4.2 nM; in assay [4] (setting [8]), 3.5 nM; in assay [5] (setting [9]), 3.2 nM.
